Measurements: patent US12435065B2, “Crystalline forms of 1-(1,2-dimethylpropyl)-N-ethyl-5-methyl-N-pyridazin-4-yl-pyrazole-4-carboxamide” (BASF SE, priority 2019, dated 2025)

Experiments:
[1] = Suspension of form A and form B in water, solid analysed by PXRD (phase stability); format: physicochemical
Method: (§1) Laboratory PXRD patterns were recorded with a PANalytical X'Pert Pro X-ray diffractometer using Cu Kα radiation in reflection geometry (Bragg-Brentano). The sample is placed in a silicon single crystal sample holder of 0.2 mm depth and gently and precisely flattened. The tube voltage is 45 kV and current is 40 mA. The PXRD data are collected at room temperature in the range from 2θ=3.0°-40.0° with increments of 0.017° and measurement time of 20 to 200 s/step.
In a glass tube equipped with a stirring bar 50 mg of form A and 50 mg of form B were suspended in 1 mL water and stirred for 5 days at room temperature. The resulting solid was removed from the mother liquor and analyzed by PXRD.

[2] = Milling of crystalline form B, analysed by PXRD (stability during grinding); format: physicochemical; details: 100 mg milled for 5 minutes with mortar and pestle
Method: as §1
100 mg of crystalline form B obtained by the protocol of example 1 was milled for 5 minutes using mortar and pestel. The crystalline mass was analyzed by powder X-ray diffractometry.

Crystal form after milling (PXRD) [2] | Structure (SMILES) | Crystal form of the solid after stirring in water (PXRD) ([1]; 50 mg form A and 50 mg form B suspended in 1 mL water, stirred 5 days at room temperature) | Thermodynamic stability relative to crystalline form A ([1]; at least at room temperature)
 | CCN(C(=O)c1cnn(C(C)C(C)C)c1C)c1ccnnc1 (stereo not drawn) [form A, 1-(1,2-dimethylpropyl)-N-ethyl-5-methyl-N-pyridazin-4-yl-pyrazole-4-carboxamide] | complied with the data of crystalline form B | 
form B was identified | CCN(C(=O)c1cnn(C(C)C(C)C)c1C)c1ccnnc1 (stereo not drawn) [form B, 1-(1,2-dimethylpropyl)-N-ethyl-5-methyl-N-pyridazin-4-yl-pyrazole-4-carboxamide] |  | thermodynamically more stable than the crystalline form A
